# Experimental data published in patent US20200187502A1, “MICROBIOCIDAL OXADIAZOLE DERIVATIVES” (SYNGENTA PARTICIPATIONS AG, priority 2017, published 2020).
# System: Puccinia recondita f. Sp. Tritici
# Experiment: Fungicidal activity, wheat leaf disc preventative (brown rust)
# Format: in vivo
# Conditions: foliar, 200 ppm in the applied formulation, wheat leaf segments cv. Kanzler, compared to untreated control, 7 to 9 days after application, read-out: disease control
# Procedure: Leaf disks or leaf segments of various plant species are cut from plants grown in a greenhouse. The cut leaf disks or segments are placed in multiwell plates (24-well format) onto water agar. The leaf disks are sprayed with a test solution before (preventative) or after (curative) inoculation. Compounds to be tested are prepared as DMSO solutions (max. 10 mg/ml) which are diluted to the appropriate concentration with 0.025% Tween20 just before spraying. The inoculated leaf disks or segments are incubated under defined conditions (temperature, relative humidity, light, etc.) according to the respective test system. A single evaluation of disease level is carried out 3 to 14 days after inoculation, depending on the pathosystem. Percent disease control relative to the untreated check leaf disks or segments is then calculated.
# Wheat leaf segments cv. Kanzler were placed on agar in multiwell plates (24-well format) and sprayed with the formulated test compound diluted in water. The leaf disks were inoculated with a spore suspension of the fungus 1 day after application. The inoculated leaf segments were incubated at 19° C. and 75% relative humidity (rh) under a light regime of 12 hours light/12 hours darkness in a climate cabinet and the activity of a compound was assessed as percent disease control compared to untreated when an appropriate level of disease damage appears in untreated check leaf segments (7 to 9 days after application).
# The following compounds at 200 ppm in the applied formulation give at least 80% disease control in this test when compared to untreated control leaf disks under the same conditions, which show extensive disease development.
row,Compound,pest or weed control at 200 ppm
1,"CS(=O)(=O)N(Cc1ccc(-c2noc(C(F)(F)F)n2)s1)C1CC1 [Compound 6.1, N-cyclopropyl-N-[[5-[5-(trifluoromethyl)-1,2,4-oxadiazol-3-yl]-2-thienyl]methyl]methanesulfonamide]",≥ 80%
2,"O=S(=O)(Cc1ccccc1)N(Cc1ccc(-c2noc(C(F)(F)F)n2)s1)C1CC1 [Compound 6.33, N-cyclopropyl-1-phenyl-N-[[5-[5-(trifluoromethyl)-1,2,4-oxadiazol-3-yl]-2-thienyl]methyl]methanesulfonamide]",≥ 80%
3,"CN(Cc1ccc(-c2noc(C(F)(F)F)n2)s1)S(=O)(=O)c1ccccc1 [Compound 6.26, N-methyl-N-[[5-[5-(trifluoromethyl)-1,2,4-oxadiazol-3-yl]-2-thienyl]methyl]benzenesulfonamide]",≥ 80%
4,"O=S(=O)(c1ccccc1)N(Cc1ccc(-c2noc(C(F)(F)F)n2)s1)C1CC1 [Compound 6.36, N-cyclopropyl-N-[[5-[5-(trifluoromethyl)-1,2,4-oxadiazol-3-yl]-2-thienyl]methyl]benzenesulfonamide]",≥ 80%
5,"CCCCS(=O)(=O)N(C)Cc1ccc(-c2noc(C(F)(F)F)n2)s1 [Compound 6.24, N-methyl-N-[[5-[5-(trifluoromethyl)-1,2,4-oxadiazol-3-yl]-2-thienyl]methyl]butane-1-sulfonamide]",≥ 80%

# System: Glomerella lacenarium (Colletotrichum lacenarium)
# Experiment: Fungicidal activity, liquid culture, cucumber preventative (anthracnose)
# Format: cell-based
# Conditions: 20 ppm in the applied formulation, liquid culture in PDB, inhibition of growth measured photometrically 3 to 4 days after application, compared to untreated control, read-out: disease control
# Procedure: Mycelia fragments or conidia suspensions of a fungus prepared either freshly from liquid cultures of the fungus or from cryogenic storage, are directly mixed into nutrient broth. DMSO solutions of the test compound (max. 10 mg/ml) are diluted with 0.025% Tween20 by a factor of 50 and 10 μl of this solution is pipetted into a microtiter plate (96-well format). The nutrient broth containing the fungal spores/mycelia fragments is then added to give an end concentration of the tested compound. The test plates are incubated in the dark at 24° C. and 96% relative humidity. The inhibition of fungal growth is determined photometrically after 2 to 7 days, depending on the pathosystem, and percent antifungal activity relative to the untreated check is calculated.
# Conidia of the fungus from cryogenic storage are directly mixed into nutrient broth (PDB—potato dextrose broth). After placing a (DMSO) solution of test compound into a microtiter plate (96-well format), the nutrient broth containing the fungal spores is added. The test plates are incubated at 24° C. and the inhibition of growth is measured photometrically 3 to 4 days after application.
# The following compounds at 20 ppm in the applied formulation give at least 80% disease control in this test when compared to untreated control under the same conditions, which show extensive disease development.
row,Compound,inhibition of growth at 20 ppm
1,"CS(=O)(=O)N(Cc1ccc(-c2noc(C(F)(F)F)n2)s1)C1CC1 [Compound 6.1, N-cyclopropyl-N-[[5-[5-(trifluoromethyl)-1,2,4-oxadiazol-3-yl]-2-thienyl]methyl]methanesulfonamide]",≥ 80%
2,"CC(C)N(Cc1ccc(-c2noc(C(F)(F)F)n2)s1)C(=O)N1CCCO1 [Compound 5.58, N-isopropyl-N-[[5-[5-(trifluoromethyl)-1,2,4-oxadiazol-3-yl]-2-thienyl]methyl]isoxazolidine-2-carboxamide]",≥ 80%
3,"O=S(=O)(Cc1ccccc1)N(Cc1ccc(-c2noc(C(F)(F)F)n2)s1)C1CC1 [Compound 6.33, N-cyclopropyl-1-phenyl-N-[[5-[5-(trifluoromethyl)-1,2,4-oxadiazol-3-yl]-2-thienyl]methyl]methanesulfonamide]",≥ 80%
4,"CCN(Cc1ccc(-c2noc(C(F)(F)F)n2)s1)C(=O)C(=O)C(C)(C)C [Compound 6.41, N-ethyl-3,3-dimethyl-2-oxo-N-[[5-[5-(trifluoromethyl)-1,2,4-oxadiazol-3-yl]-2-thienyl]methyl]butanamide]",≥ 80%
5,"C=CCS(=O)(=O)N(Cc1ccc(-c2noc(C(F)(F)F)n2)s1)OC [Compound 1.38, N-methoxy-N-[[5-[5-(trifluoromethyl)-1,2,4-oxadiazol-3-yl]-2-thienyl]methyl]prop-2-ene-1-sulfonamide]",≥ 80%
6,"CC(C)N(Cc1ccc(-c2noc(C(F)(F)F)n2)s1)C(=O)C1(C)CC1 [Compound 5.30, N-isopropyl-1-methyl-N-[[5-[5-(trifluoromethyl)-1,2,4-oxadiazol-3-yl]-2-thienyl]methyl]cyclopropanecarboxamide]",≥ 80%
7,"CC(C)C(=O)N(Cc1ccc(-c2noc(C(F)(F)F)n2)s1)OCC(F)F [Compound 4.20, N-(2,2-difluoroethoxy)-2-methyl-N-[[5-[5-(trifluoromethyl)-1,2,4-oxadiazol-3-yl]-2-thienyl]methyl]propanamide]",≥ 80%
8,"CON(Cc1ccc(-c2noc(C(F)(F)F)n2)s1)S(=O)(=O)N1CCCC1 [Compound 1.36, N-methoxy-N-[[5-[5-(trifluoromethyl)-1,2,4-oxadiazol-3-yl]-2-thienyl]methyl]pyrrolidine-1-sulfonamide]",≥ 80%
9,"O=C(c1ccccc1Cl)N(Cc1ccc(-c2noc(C(F)(F)F)n2)s1)C1CC1 [Compound 5.35, 2-chloro-N-cyclopropyl-N-[[5-[5-(trifluoromethyl)-1,2,4-oxadiazol-3-yl]-2-thienyl]methyl]benzamide]",≥ 80%
10,"CCN(Cc1ccc(-c2noc(C(F)(F)F)n2)s1)S(=O)(=O)c1ccccc1 [Compound 6.15, N-ethyl-N-[[5-[5-(trifluoromethyl)-1,2,4-oxadiazol-3-yl]-2-thienyl]methyl]benzenesulfonamide]",≥ 80%
11,"CON(Cc1ccc(-c2noc(C(F)(F)F)n2)s1)C(=O)n1ccnc1 [Compound 1.3, N-methoxy-N-[[5-[5-(trifluoromethyl)-1,2,4-oxadiazol-3-yl]-2-thienyl]methyl]imidazole-1-carboxamide]",≥ 80%
12,"O=C(c1ccccc1Cl)N(Cc1ccc(-c2noc(C(F)(F)F)n2)s1)OCC(F)F [Compound 5.44, 2-chloro-N-(2,2-difluoroethoxy)-N-[[5-(5-(trifluoromethyl)-1,2,4-oxadiazol-3-yl]-2-thienyl]methyl]benzamide]",≥ 80%
13,"COC(=O)CCS(=O)(=O)N(Cc1ccc(-c2noc(C(F)(F)F)n2)s1)OC [Compound 1.39, methyl 3-[methoxy-[[5-[5-(trifluoromethyl)-1,2,4-oxadiazol-3-yl]-2-thienyl]methyl]sulfamoyl]propanoate]",≥ 80%
14,"CC(C)N(Cc1ccc(-c2noc(C(F)(F)F)n2)s1)C(=O)CC1CC1 [Compound 5.27, 2-cyclopropyl-N-isopropyl-N-[[5-[5-(trifluoromethyl)-1,2,4-oxadiazol-3-yl]-2-thienyl]methyl]acetamide]",≥ 80%
15,"CCCCS(=O)(=O)N(Cc1ccc(-c2noc(C(F)(F)F)n2)s1)C1CC1 [Compound 6.34, N-cyclopropyl-N-[[5-[5-(trifluoromethyl)-1,2,4-oxadiazol-3-yl]-2-thienyl]methyl]butane-1-sulfonamide]",≥ 80%
16,"COCCS(=O)(=O)N(Cc1ccc(-c2noc(C(F)(F)F)n2)s1)OC [Compound 1.40, N,2-dimethoxy-N-[[5-[5-(trifluoromethyl)-1,2,4-oxadiazol-3-yl]-2-thienyl]methyl]ethanesulfonamide]",≥ 80%
17,"CCN(Cc1ccc(-c2noc(C(F)(F)F)n2)s1)C(=O)c1ccccc1Cl [Compound 5.8, 2-chloro-N-ethyl-N-[[5-[5-(trifluoromethyl)-1,2,4-oxadiazol-3-yl]-2-thienyl]methyl]benzamide]",≥ 80%
18,"CC1(C(=O)N(Cc2ccc(-c3noc(C(F)(F)F)n3)s2)OCC(F)F)CC1 [Compound 5.48, N-(2,2-difluoroethoxy)-1-methyl-N-[[5-[5-(trifluoromethyl)-1,2,4-oxadiazol-3-yl]-2-thienyl]methyl]cyclopropanecarboxamide]",≥ 80%
19,"CN(C)C(=O)C(=O)N(Cc1ccc(-c2noc(C(F)(F)F)n2)s1)OCC(F)F [Compound 6.65, N′-(2,2-difluoroethoxy)-N,N-dimethyl-N′-[[5-[5-(trifluoromethyl)-1,2,4-oxadiazol-3-yl]-2-thienyl]methyl]oxamide]",≥ 80%
20,"CC(C)S(=O)(=O)N(C)Cc1ccc(-c2noc(C(F)(F)F)n2)s1 [Compound 6.23, N-methyl-N-[[5-[5-(trifluoromethyl)-1,2,4-oxadiazol-3-yl]-2-thienyl]methyl]propane-2-sulfonamide]",≥ 80%
21,"CON(Cc1ccc(-c2noc(C(F)(F)F)n2)s1)S(C)(=O)=O [Compound 1.31, N-methoxy-N-[[5-[5-(trifluoromethyl)-1,2,4-oxadiazol-3-yl]-2-thienyl]methyl]methanesulfonamide]",≥ 80%
22,"CC(C)N(Cc1ccc(-c2noc(C(F)(F)F)n2)s1)S(=O)(=O)N(C)C [Compound 6.4, N-(dimethylsulfamoyl)-N-[[5-[5-(trifluoromethyl)-1,2,4-oxadiazol-3-yl]-2-thienyl]methyl]propan-2-amine]",≥ 80%
23,"CCOC(=O)N(Cc1ccc(-c2noc(C(F)(F)F)n2)s1)C(C)C [Compound 4.12, ethyl N-isopropyl-N-[[5-[5-(trifluoromethyl)-1,2,4-oxadiazol-3-yl]-2-thienyl]methyl]carbamate]",≥ 80%
24,"CC1CC1C(=O)N(Cc1ccc(-c2noc(C(F)(F)F)n2)s1)C(C)C (stereo not drawn) [Compound 5.34, N-isopropyl-2-methyl-N-[[5-[5-(trifluoromethyl)-1,2,4-oxadiazol-3-yl]-2-thienyl]methyl]cyclopropanecarboxamide]",≥ 80%
25,"COC(C)C(=O)N(Cc1ccc(-c2noc(C(F)(F)F)n2)s1)OCC(F)F (stereo not drawn) [Compound 4.21, N-(2,2-difluoroethoxy)-2-methoxy-N-[[5-[5-(trifluoromethyl)-1,2,4-oxadiazol-3-yl]-2-thienyl]methyl]propanamide]",≥ 80%
